The assay relates to agricultural and horticultural crops. The settings on record: Nitrobenzene in a suitable formulation, used as spray or in granular form.

Turning to `O=[N+]([O-])c1ccccc1` [Nitrobenzene], the increasing flowers is listed as 40 to 45%.
